In patent US8802597B2, “Herbicidal pyrimidines” (E I du Pont de Nemours and Company, priority 2003, dated 2014):
Like-named read-outs stand apart in the source and are kept apart here.

Experiments:
Format in all cases: in vivo
[1] = system: barnyardgrass (Echinochloa crus-galli); assay: Test B flooded paddy test; conditions: Echinochloa crus-galli, Flood, 1000 g ai/ha; scale 0 (no effect) to 100 (complete control); read-out: Plant response rating, Barnyardgrass
Summary of the method: (§1)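 Rice, umbrella sedge, duck salad and barnyardgrass grown to 2-leaf stage under flooded paddy conditions and treated with formulated test chemicals. Kept in greenhouse 13–15 days, then visually rated against untreated controls on a 0–100 scale (0 no effect, 100 complete control).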

[2] = system: duck salad (Heteranthera limosa); assay: Test B flooded paddy test; conditions: Heteranthera limosa, Flood, 1000 g ai/ha; scale 0 to 100; read-out: Plant response rating, Ducksalad
Summary of the method: as §1

[3] = system: umbrella sedge (Cyperus difformis); assay: Test B flooded paddy test; conditions: Cyperus difformis, Flood, 1000 g ai/ha; scale 0 to 100; read-out: Plant response rating, Sedge, Umbrella
Summary of the method: as §1

[4] = system: rice (Oryza sativa); assay: Test B flooded paddy test; conditions: Oryza sativa, Flood, 1000 g ai/ha; scale 0 to 100; read-out: Plant response rating, Rice
Summary of the method: as §1

[5] = system: wild oat (Avena fatua); assay: Test B postemergence; conditions: Avena fatua, post-emergence
Summary of the method: (§2)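 Visual rating, 0 (no effect) to 100 (complete control) versus controls, taken 13–15 days after treatment in greenhouse. Compounds formulated in non-phytotoxic solvent plus surfactant; pre: sprayed after seeding; post: plants at 1- to 4-leaf stage, 2–18 cm.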

[6] = system: blackgrass (Alopecurus myosuroides); assay: Test B postemergence; conditions: Alopecurus myosuroides, post-emergence
Summary of the method: as §2

[7] = system: barnyardgrass (Echinochloa crus-galli); assay: Test B pre/postemergence; conditions: Echinochloa crus-galli; for pest or weed control at 125 g/ha: 125 g ai/ha; for pest or weed control at 500 g/ha: 500 g ai/ha
Summary of the method: as §2

[8] = system: giant foxtail (Setaria faberii); assay: Test B pre/postemergence; conditions: Setaria faberi; for pest or weed control at 125 g/ha: 125 g ai/ha; for pest or weed control at 500 g/ha: 500 g ai/ha
Summary of the method: as §2

[9] = system: corn (Zea mays); assay: Test B pre/postemergence; conditions: Zea mays
Summary of the method: as §2

[10] = system: lambsquarters (Chenopodium album); assay: Test B pre/postemergence; conditions: Chenopodium album; for pest or weed control at 125 g/ha: 125 g ai/ha; for pest or weed control at 500 g/ha: 500 g ai/ha
Summary of the method: as §2

[11] = system: morningglory (Ipomoea coccinea); assay: Test B pre/postemergence; conditions: Ipomoea; for pest or weed control at 125 g/ha: 125 g ai/ha; for pest or weed control at 500 g/ha: 500 g ai/ha
Summary of the method: as §2

[12] = system: Surinam grass (Brachiaria decumbens); assay: Test B pre/postemergence; conditions: Urochloa decumbens; for pest or weed control at 125 g/ha: 125 g ai/ha; for pest or weed control at 500 g/ha: 500 g ai/ha
Summary of the method: as §2

[13] = system: pigweed (Amaranthus retroflexus); assay: Test B pre/postemergence; conditions: Amaranthus retroflexus; for pest or weed control at 125 g/ha: 125 g ai/ha; for pest or weed control at 500 g/ha: 500 g ai/ha
Summary of the method: as §2

[14] = system: velvetleaf (Abutilon theophrasti); assay: Test B pre/postemergence; conditions: Abutilon theophrasti; for pest or weed control at 125 g/ha: 125 g ai/ha; for pest or weed control at 500 g/ha: 500 g ai/ha
Summary of the method: as §2

[15] = system: crabgrass (Digitaria sanguinalis); assay: Test B pre/postemergence; conditions: Digitaria sanguinalis; for pest or weed control at 125 g/ha: 125 g ai/ha; for pest or weed control at 500 g/ha: 500 g ai/ha
Summary of the method: as §2

[16] = system: wheat (Triticum aestivum); assay: Test B pre/postemergence; conditions: Triticum aestivum; for plant injury at 125 g/ha: 125 g ai/ha; for plant injury at 500 g/ha: 500 g ai/ha
Summary of the method: as §2

[17] = system: cocklebur (Xanthium strumarium); assay: Test B pre/postemergence; conditions: Xanthium strumarium; for pest or weed control at 125 g/ha: 125 g ai/ha; for pest or weed control at 500 g/ha: 500 g ai/ha
Summary of the method: as §2

Nc1nc(C2CC2)nc(C=O)c1F [Compound 24]
pest or weed control at 1000 g/ha [1]: 0%
pest or weed control at 1000 g/ha [2]: 0%
pest or weed control at 1000 g/ha [3]: 20%
plant injury at 1000 g/ha [4]: 10%
pest or weed control at 125 g/ha ([5]; 125 g ai/ha, scale 0 to 100 (0 no effect, 100 complete control), read-out: Oat, Wild plant response rating): 0%
pest or weed control at 500 g/ha ([5]; 500 g ai/ha, scale 0 to 100, read-out: Plant response rating, Oat, Wild): 0%
pest or weed control at 125 g/ha ([6]; 125 g ai/ha, scale 0 to 100 (0 no effect, 100 complete control), read-out: Blackgrass plant response rating): 0%
pest or weed control at 500 g/ha ([6]; 500 g ai/ha, scale 0 to 100, read-out: Plant response rating, Blackgrass): 10%
pest or weed control at 125 g/ha ([7]; post-emergence, Postemergence, scale 0 to 100 (0 no effect, 100 complete control), read-out: Barnyardgrass plant response rating): 0%
pest or weed control at 500 g/ha ([7]; post-emergence, Postemergence, scale 0 to 100, read-out: Plant response rating, Barnyardgrass): 10%
pest or weed control at 125 g/ha ([7]; pre-emergence, Preemergence, scale 0 to 100 (0 no effect, 100 complete control), read-out: Plant response rating, Barnyardgrass): 0%
pest or weed control at 500 g/ha ([7]; pre-emergence, Preemergence, scale 0 to 100 (0 no effect, 100 complete control), read-out: Barnyardgrass plant response rating): 20%
pest or weed control at 125 g/ha ([8]; post-emergence, Postemergence, scale 0 to 100 (0 no effect, 100 complete control), read-out: Foxtail, Giant plant response rating): 20%
pest or weed control at 500 g/ha ([8]; post-emergence, Postemergence, scale 0 to 100, read-out: Plant response rating, Foxtail, Giant): 30%
pest or weed control at 125 g/ha ([8]; pre-emergence, Preemergence, scale 0 to 100 (0 no effect, 100 complete control), read-out: Plant response rating, Foxtail, Giant): 10%
pest or weed control at 500 g/ha ([8]; pre-emergence, Preemergence, scale 0 to 100 (0 no effect, 100 complete control), read-out: Foxtail, Giant plant response rating): 60%
plant injury at 125 g/ha ([9]; post-emergence, Postemergence, 125 g ai/ha, scale 0 to 100 (0 no effect, 100 complete control), read-out: Corn plant response rating): 0%
Corn plant response rating (crop injury, 0 = no effect, 100 = complete kill) at 500 g/ha ([9]; post-emergence, Postemergence, 500 g ai/ha, scale 0 to 100): 10%
plant injury at 500 g/ha ([9]; pre-emergence, Preemergence, 500 g ai/ha, scale 0 to 100 (0 no effect, 100 complete control), read-out: Corn plant response rating): 0%
pest or weed control at 125 g/ha ([10]; post-emergence, Postemergence, scale 0 to 100 (0 no effect, 100 complete control), read-out: Lambsquarters plant response rating): 70%
pest or weed control at 500 g/ha ([10]; post-emergence, Postemergence, scale 0 to 100, read-out: Plant response rating, Lambsquarters): 80%
pest or weed control at 125 g/ha ([10]; pre-emergence, Preemergence, scale 0 to 100 (0 no effect, 100 complete control), read-out: Plant response rating, Lambsquarters): 70%
pest or weed control at 500 g/ha ([10]; pre-emergence, Preemergence, scale 0 to 100 (0 no effect, 100 complete control), read-out: Lambsquarters plant response rating): 90%
pest or weed control at 125 g/ha ([11]; post-emergence, Postemergence, scale 0 to 100 (0 no effect, 100 complete control), read-out: Morningglory plant response rating): 60%
pest or weed control at 500 g/ha ([11]; post-emergence, Postemergence, scale 0 to 100, read-out: Plant response rating, Morningglory): 90%
pest or weed control at 125 g/ha ([11]; pre-emergence, Preemergence, scale 0 to 100 (0 no effect, 100 complete control), read-out: Plant response rating, Morningglory): 50%
pest or weed control at 500 g/ha ([11]; pre-emergence, Preemergence, scale 0 to 100 (0 no effect, 100 complete control), read-out: Morningglory plant response rating): 90%
pest or weed control at 125 g/ha ([12]; post-emergence, Postemergence, scale 0 to 100 (0 no effect, 100 complete control), read-out: Surinam Grass plant response rating): 0%
pest or weed control at 500 g/ha ([12]; post-emergence, Postemergence, scale 0 to 100, read-out: Plant response rating, Surinam Grass): 10%
pest or weed control at 125 g/ha ([12]; pre-emergence, Preemergence, scale 0 to 100 (0 no effect, 100 complete control), read-out: Plant response rating, Surinam Grass): 10%
pest or weed control at 500 g/ha ([12]; pre-emergence, Preemergence, scale 0 to 100 (0 no effect, 100 complete control), read-out: Surinam Grass plant response rating): 50%
pest or weed control at 125 g/ha ([13]; post-emergence, Postemergence, scale 0 to 100 (0 no effect, 100 complete control), read-out: Pigweed plant response rating): 70%
pest or weed control at 500 g/ha ([13]; post-emergence, Postemergence, scale 0 to 100, read-out: Plant response rating, Pigweed): 80%
pest or weed control at 125 g/ha ([13]; pre-emergence, Preemergence, scale 0 to 100 (0 no effect, 100 complete control), read-out: Plant response rating, Pigweed): 80%
pest or weed control at 500 g/ha ([13]; pre-emergence, Preemergence, scale 0 to 100 (0 no effect, 100 complete control), read-out: Pigweed plant response rating): 90%
pest or weed control at 125 g/ha ([14]; post-emergence, Postemergence, scale 0 to 100 (0 no effect, 100 complete control), read-out: Velvetleaf plant response rating): 40%
pest or weed control at 500 g/ha ([14]; post-emergence, Postemergence, scale 0 to 100, read-out: Plant response rating, Velvetleaf): 50%
pest or weed control at 125 g/ha ([14]; pre-emergence, Preemergence, scale 0 to 100 (0 no effect, 100 complete control), read-out: Plant response rating, Velvetleaf): 50%
pest or weed control at 500 g/ha ([14]; pre-emergence, Preemergence, scale 0 to 100 (0 no effect, 100 complete control), read-out: Velvetleaf plant response rating): 80%
pest or weed control at 125 g/ha ([15]; post-emergence, Postemergence, scale 0 to 100 (0 no effect, 100 complete control), read-out: Crabgrass plant response rating): 20%
pest or weed control at 500 g/ha ([15]; post-emergence, Postemergence, scale 0 to 100, read-out: Plant response rating, Crabgrass): 40%
pest or weed control at 125 g/ha ([15]; pre-emergence, Preemergence, scale 0 to 100 (0 no effect, 100 complete control), read-out: Plant response rating, Crabgrass): 60%
pest or weed control at 500 g/ha ([15]; pre-emergence, Preemergence, scale 0 to 100 (0 no effect, 100 complete control), read-out: Crabgrass plant response rating): 80%
plant injury at 125 g/ha ([16]; post-emergence, Postemergence, scale 0 to 100 (0 no effect, 100 complete control), read-out: Wheat plant response rating): 0%
plant injury at 500 g/ha ([16]; post-emergence, Postemergence, scale 0 to 100, read-out: Plant response rating, Wheat): 0%
plant injury at 125 g/ha ([16]; pre-emergence, Preemergence, scale 0 to 100 (0 no effect, 100 complete control), read-out: Plant response rating, Wheat): 30%
plant injury at 500 g/ha ([16]; pre-emergence, Preemergence, scale 0 to 100 (0 no effect, 100 complete control), read-out: Wheat plant response rating): 70%
pest or weed control at 125 g/ha ([17]; post-emergence, Postemergence, scale 0 to 100 (0 no effect, 100 complete control), read-out: Cocklebur plant response rating): 50%
pest or weed control at 500 g/ha ([17]; post-emergence, Postemergence, scale 0 to 100, read-out: Plant response rating, Cocklebur): 70%
pest or weed control at 125 g/ha ([17]; pre-emergence, Preemergence, scale 0 to 100 (0 no effect, 100 complete control), read-out: Plant response rating, Cocklebur): 80%
pest or weed control at 500 g/ha ([17]; pre-emergence, Preemergence, scale 0 to 100 (0 no effect, 100 complete control), read-out: Cocklebur plant response rating): 90%
